Tests used:
Type in all cases: functional
K562 = experiment: Growth inhibition of human K562 cells assessed as cell growth at 0.003 uM incubated for 48 hrs by sulforhodamine B assay relative to control; details: K562, 48 h, read-out: Activity
HOP-62 = experiment: Growth inhibition of human HOP62 cells assessed as cell growth at 0.003 uM incubated for 48 hrs by sulforhodamine B assay relative to control; details: HOP-62, 48 h, read-out: Activity
HOP-92 = experiment: Growth inhibition of human HOP92 cells assessed as cell growth at 0.003 uM incubated for 48 hrs by sulforhodamine B assay relative to control; details: HOP-92, 48 h, read-out: Activity
ACHN = experiment: Growth inhibition of human ACHN cells assessed as cell growth at 0.003 uM incubated for 48 hrs by sulforhodamine B assay relative to control; details: read-out: Activity
HL-60(TB) [1] = experiment: Growth inhibition of human HL-60(TB) cells assessed as cell growth at 0.03 uM incubated for 48 hrs by sulforhodamine B assay relative to control; details: HL-60, 48 h, read-out: Activity
SF-268 [2] = experiment: Growth inhibition of human SF268 cells assessed as cell growth at 0.03 uM incubated for 48 hrs by sulforhodamine B assay relative to control; details: SF-268, 48 h, read-out: Activity
A498 = experiment: Growth inhibition of human A498 cells assessed as cell growth at 0.03 uM incubated for 48 hrs by sulforhodamine B assay relative to control; details: A498, 48 h, read-out: Activity
UO-31 [3] = experiment: Growth inhibition of human UO31 cells assessed as cell growth at 0.03 uM incubated for 48 hrs by sulforhodamine B assay relative to control; details: UO-31, 48 h, read-out: Activity
BT-549 = experiment: Growth inhibition of human BT549 cells assessed as cell growth at 0.03 uM incubated for 48 hrs by sulforhodamine B assay relative to control; details: BT-549, 48 h, read-out: Activity
SF-268 [4] = experiment: Growth inhibition of human SF268 cells assessed as cell growth at 0.3 uM incubated for 48 hrs by sulforhodamine B assay relative to control; details: SF-268, 48 h, read-out: Activity
SR = experiment: Growth inhibition of human SR cells assessed as cell growth at 3 uM incubated for 48 hrs by sulforhodamine B assay relative to control; details: read-out: Activity
HCT-15 = experiment: Growth inhibition of human HCT15 cells assessed as cell growth at 3 uM incubated for 48 hrs by sulforhodamine B assay relative to control; details: HCT-15, 48 h, read-out: Activity
SK-MEL-28 = experiment: Growth inhibition of human SK-MEL-28 cells assessed as cell growth at 3 uM incubated for 48 hrs by sulforhodamine B assay relative to control; details: SK-MEL-28, 48 h, read-out: Activity
OVCAR-8 [5] = experiment: Growth inhibition of human OVCAR8 cells assessed as cell growth at 3 uM incubated for 48 hrs by sulforhodamine B assay relative to control; details: OVCAR-8, 48 h, read-out: Activity
MOLT-4 = experiment: Growth inhibition of human MOLT4 cells assessed as cell growth at 30 uM incubated for 48 hrs by sulforhodamine B assay relative to control; details: MOLT-4, 48 h, read-out: Activity
NCI-H322M [6] = experiment: Growth inhibition of human NCI-H322M cells assessed as cell growth at 30 uM incubated for 48 hrs by sulforhodamine B assay relative to control; details: read-out: Activity
OVCAR-5 [7] = experiment: Growth inhibition of human OVCAR5 cells assessed as cell growth at 30 uM incubated for 48 hrs by sulforhodamine B assay relative to control; details: OVCAR-5, 48 h, read-out: Activity
SK-OV-3 = experiment: Growth inhibition of human SKOV3 cells assessed as cell growth at 30 uM incubated for 48 hrs by sulforhodamine B assay relative to control; details: SK-OV-3, 48 h, read-out: Activity
UO-31 [8] = experiment: Growth inhibition of human UO31 cells assessed as cell growth at 30 uM incubated for 48 hrs by sulforhodamine B assay relative to control; details: UO-31, 48 h, read-out: Activity
RPMI-8226 = experiment: Growth inhibition of human RPMI8226 cells assessed as cell growth at 0.01 uM incubated for 48 hrs by sulforhodamine B assay relative to control; details: RPMI-8226, 48 h, read-out: Activity
NCI-H23 = experiment: Growth inhibition of human NCI-H23 cells assessed as cell growth at 0.01 uM incubated for 48 hrs by sulforhodamine B assay relative to control; details: NCI-H23, 48 h, read-out: Activity
NCI-H322M [9] = experiment: Growth inhibition of human NCI-H322M cells assessed as cell growth at 0.01 uM incubated for 48 hrs by sulforhodamine B assay relative to control; details: read-out: Activity
COLO 205 = experiment: Growth inhibition of human COLO205 cells assessed as cell growth at 0.01 uM incubated for 48 hrs by sulforhodamine B assay relative to control; details: COLO 205, 48 h, read-out: Activity
U-251 = experiment: Growth inhibition of human U251 cells assessed as cell growth at 0.01 uM incubated for 48 hrs by sulforhodamine B assay relative to control; details: U-251, 48 h, read-out: Activity
OVCAR-3 = experiment: Growth inhibition of human OVCAR3 cells assessed as cell growth at 0.01 uM incubated for 48 hrs by sulforhodamine B assay relative to control; details: OVCAR-3, 48 h, read-out: Activity
MDA-MB-231 = experiment: Growth inhibition of human MDA-MB-231 cells assessed as cell growth at 0.01 uM incubated for 48 hrs by sulforhodamine B assay relative to control; details: MDA-MB-231, 48 h, read-out: Activity
PC-3 = experiment: Growth inhibition of human PC3 cells assessed as cell growth at 0.1 uM incubated for 48 hrs by sulforhodamine B assay relative to control; details: PC-3, 48 h, read-out: Activity
OVCAR-5 [10] = experiment: Growth inhibition of human OVCAR5 cells assessed as cell growth at 1 uM incubated for 48 hrs by sulforhodamine B assay relative to control; details: OVCAR-5, 48 h, read-out: Activity
OVCAR-8 [11] = experiment: Growth inhibition of human OVCAR8 cells assessed as cell growth at 1 uM incubated for 48 hrs by sulforhodamine B assay relative to control; details: OVCAR-8, 48 h, read-out: Activity
NCI-H226 = experiment: Growth inhibition of human NCI-H226 cells assessed as cell growth at 10 uM incubated for 48 hrs by sulforhodamine B assay relative to control; details: NCI-H226, 48 h, read-out: Activity
NCI/ADR-RES = experiment: Growth inhibition of human NCI/ADR-RES cells assessed as cell growth at 10 uM incubated for 48 hrs by sulforhodamine B assay relative to control; details: read-out: Activity
HL-60(TB) [12] = experiment: Growth inhibition of human HL-60(TB) cells assessed as cell growth at 100 uM incubated for 48 hrs by sulforhodamine B assay relative to control; details: HL-60, 48 h, read-out: Activity
Malme-3M = experiment: Growth inhibition of human MALME-3M cells assessed as cell growth at 100 uM incubated for 48 hrs by sulforhodamine B assay relative to control; details: read-out: Activity
UACC-257 = experiment: Growth inhibition of human UACC257 cells assessed as cell growth at 100 uM incubated for 48 hrs by sulforhodamine B assay relative to control; details: UACC-257, 48 h, read-out: Activity

COc1cc2cc(Oc3ccc(NC(=O)Nc4ccc(Cl)c(C(F)(F)F)c4)cc3)c(C)nc2cc1OC
growth at 0.003 µM (K562): 95% | growth at 0.003 µM (HOP-62): 99% | growth at 0.003 µM (HOP-92): 92% | growth at 0.003 µM (ACHN): 95% | growth at 0.03 µM (HL-60(TB) [1]): 97% | growth at 0.03 µM (SF-268 [2]): 91% | growth at 0.03 µM (A498): 68% | growth at 0.03 µM (UO-31 [3]): 89% | growth at 0.03 µM (BT-549): 83% | growth at 0.3 µM (SF-268 [4]): 100% | growth at 3 µM (SR): -9% | growth at 3 µM (HCT-15): 16% | growth at 3 µM (SK-MEL-28): 27% | growth at 3 µM (OVCAR-8 [5]): 6% | growth at 30 µM (MOLT-4): -36% | growth at 30 µM (NCI-H322M [6]): -86% | growth at 30 µM (OVCAR-5 [7]): -81% | growth at 30 µM (SK-OV-3): -51% | growth at 30 µM (UO-31 [8]): -71%

COc1cc2cc(Oc3ccc(NC(=O)Nc4ccc(Cl)c(Cl)c4)cc3)c(C)nc2cc1OC
growth at 0.01 µM (RPMI-8226): 100% | growth at 0.01 µM (NCI-H23): 98% | growth at 0.01 µM (NCI-H322M [9]): 100% | growth at 0.01 µM (COLO 205): 106% | growth at 0.01 µM (U-251): 94% | growth at 0.01 µM (OVCAR-3): 109% | growth at 0.01 µM (MDA-MB-231): 93% | growth at 0.1 µM (PC-3): 95% | growth at 1 µM (OVCAR-5 [10]): 116% | growth at 1 µM (OVCAR-8 [11]): 96% | growth at 10 µM (NCI-H226): -7% | growth at 10 µM (NCI/ADR-RES): 14% | growth at 100 µM (HL-60(TB) [12]): -41% | growth at 100 µM (Malme-3M): -99% | growth at 100 µM (UACC-257): -92%

COc1cc2cc(Oc3ccc(NC(=O)Nc4cc(C(F)(F)F)cc(C(F)(F)F)c4)cc3)c(C)nc2cc1OC
growth at 0.01 µM (RPMI-8226): 98% | growth at 0.01 µM (NCI-H23): 99% | growth at 0.01 µM (NCI-H322M [9]): 94% | growth at 0.01 µM (COLO 205): 93% | growth at 0.01 µM (U-251): 100% | growth at 0.01 µM (OVCAR-3): 104% | growth at 0.01 µM (MDA-MB-231): 101% | growth at 0.1 µM (PC-3): 89% | growth at 1 µM (OVCAR-5 [10]): 93% | growth at 1 µM (OVCAR-8 [11]): 76% | growth at 10 µM (NCI-H226): -60% | growth at 10 µM (NCI/ADR-RES): -54% | growth at 100 µM (HL-60(TB) [12]): -56% | growth at 100 µM (Malme-3M): -74% | growth at 100 µM (UACC-257): -78%

Cc1nc2cc(O)c(O)cc2cc1Oc1ccc(NC(=O)Nc2ccc(Cl)c(Cl)c2)cc1
growth at 0.003 µM (K562): 122% | growth at 0.003 µM (HOP-62): 108% | growth at 0.003 µM (HOP-92): 84% | growth at 0.003 µM (ACHN): 103% | growth at 0.03 µM (HL-60(TB) [1]): 106% | growth at 0.03 µM (SF-268 [2]): 104% | growth at 0.03 µM (A498): 75% | growth at 0.03 µM (UO-31 [3]): 98% | growth at 0.03 µM (BT-549): 94% | growth at 0.3 µM (SF-268 [4]): 107% | growth at 3 µM (SR): 28% | growth at 3 µM (HCT-15): 62% | growth at 3 µM (SK-MEL-28): 92% | growth at 3 µM (OVCAR-8 [5]): 66% | growth at 30 µM (MOLT-4): 2% | growth at 30 µM (NCI-H322M [6]): 19% | growth at 30 µM (OVCAR-5 [7]): -6% | growth at 30 µM (SK-OV-3): 7% | growth at 30 µM (UO-31 [8]): -51%

Source: ChEMBL document CHEMBL3994622, “Design and synthesis of new RAF kinase-inhibiting antiproliferative quinoline derivatives. Part 2: Diarylurea derivatives” (Eur J Med Chem, 2017)
